Read-outs that look alike come from different tables or passages of the source.
How the values were obtained:
Type in all cases: cell-based
Huh7 cells [1] = assay: Lipid droplet (LD) formation in Huh7 cells, BODIPY 493/503 staining, confocal microscopy; details: Homo sapiens, Huh-7, 24 h
Description: FIGS. 5A-5D. Effect of HPN-01 on hepatocellular lipid droplet (LD) biogenesis. Heptoma cell line Huh7 cells were treated with various amounts of HPN-01 for 24 hours, either in the absence or in the presence of 400 μM oleic acid, which triggers LD formation, after which intracellular LD contents were observed using a Zeiss confocal microscope with fluorescence. FIG. 5A) Fluorescent analysis of untreated (DMSO) or HPN-01-treated cells in the absence (Top panels) and presence (Bottom panels) of oleic acid. Cellular LD contents were stained using BODIPY 493/503 and are shown in green. Blue indicates cell nuclei. FIG. 5B) LD size of treated and untreated (DMSO) cells, in the presence or absence of oleic acid. FIG. 5C) Mean fluorescence intensity of untreated (DMSO) and treated cells in the absence of oleic acid. FIG. 5D) Mean fluorescence intensity of untreated (DMSO) and treated cells in the presence of oleic acid.
Heptoma cell line Huh7 cells were treated with various amounts of HPN-01 for 24 h, either in the absence or in the presence of 400 μM oleic acid, and observed under a Zeiss confocal microscope. […] LD contents (stained with BODIPY 493/503, in green) were observed under a Zeiss confocal microscope. FIG. 5A. Blue indicates cell nuclei. FIG. 5B. LD size. FIG. 5C. Mean fluorescence intensity. Values were measured using ZEN software by counting 300 cells under each treatment condition.

[2] = Cytotoxicity, inhibition of cell growth; details: human, read-out: CC50 (cytotoxic concentration that will kill half of the treated cells)
Description: FIGS. 10A and 10B. Inhibition of hepatocyte growth by HPN-01.
Huh7 cells and primary human hepatocytes were cultured in the presence of varying concentrations of HPN-01, and the inhibition of cell growth was measured.

SREBP-1 [3] = assay: SREBP-1 expression in cultured primary human hepatocytes; details: Hepatocyte
Outline: (§1)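 Primary human hepatocytes in culture exposed to a range of HPN-01 derivative concentrations; SREBP-1 and SREBP-2 mRNA expression then measured to assess inhibition.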

Huh7 cells [4] = assay: LD content in Huh7 cells pre-treated with insulin, Oil-Red-O staining, absorbance OD 540 nm; details: Homo sapiens, Huh-7; Huh7 cells pre-treated with 1 mM insulin, 24 h; read-out: LD contents IC50 (Oil-Red-O, OD 540 nm)
Outline: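 Huh7 cells, mock-treated or pre-treated with 1 mM insulin, were then exposed to compound at the indicated amounts. Lipid droplets stained with Oil Red O and quantified by absorbance at OD 540 nm.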

SREBP-2 [5] = assay: SREBP-2 expression in cultured primary human hepatocytes; details: Hepatocyte
Outline: as §1

adiponectin = assay: Secreted adiponectin in differentiated 3T3-L1 cells by ELISA; details: differentiated mouse 3T3-L1 cells
Description: Differentiated, mouse 3T3-L1 cells were treated with varying concentrations of HPN-01, and the level of secreted adiponectin measured by ELISA.

LDLR = assay: Lipogenic gene mRNA by real-time qPCR in Huh7 cells; details: 1 μM, 24 h
Excerpt: (§2) FIG. 8. Inhibition of various lipogenic gene mRNA levels following treatment with HPN-01. […] Sterol regulatory element-binding protein-1 (SREBP-1); Sterol regulatory element-binding protein-2 (SREBP-2); Fatty acid synthase (FASN); Stearoyl-CoA-desaturase (SCD1); Acetyl-CoA carboxylase (ACC); Elongation of very long chain fatty acids fatty acid elongase 6 (ELOVL6); Low density liporeceptor (LDLR); Fatty acid desaturase 1 (FADS1); Diacylglycerol 0-Acyltransferase 1 (DGAT1); Diacylglycerol 0-Acyltransferase 2 (DGAT2).
(§3) Huh7 cells were treated with 1 μM of HPN-01 for 24 h, and the mRNA expression levels of various pivotal lipogenic enzymes were quantified by real-time qPCR. […] Folds of inhibition were as follows: SREBP-1: 2.98±0.23; SREBP-2: 4.01±0.31; FASN: 3.87±0.23; SCD1: 4.63±0.48; ACC: 4.12±0.34; ELOVL6: 2.84±0.22; LDLR: 3.02±0.11; FADS1: 3.06±0.17; DGAT1: 1.72±0.27; DGAT2: 3.77±0.45.

DGAT2 = assay: as above; details: 1 μM, 24 h
Excerpt: as §2, §3

SREBP-2 [6] = assay: as above; details: 1 μM, 24 h
Excerpt: as §2, §3

SREBP-1 [7] = assay: as above; details: 1 μM, 24 h
Excerpt: as §2, §3

IC50 (Huh7 cells [1]; with oleic acid stimulation (400 μM)): 0.27 µM
IC50 (Huh7 cells [1]; without oleic acid pre-treatment): 0.46 µM
IC50 (Huh7 cells [4]): 0.25 µM
IC50 (adiponectin): 0.32 µM
Structure (SMILES): NC(=O)c1cc(-c2ccc(Cl)cc2)cc(-c2ccc(S(N)(=O)=O)cc2)c1N [HPN-01, 2-amino-3-(p-sulfonamidophenyl)-5-(p-chlorophenyl) benzamide]
CC50 ([2]; Huh7 cells): 54.3 µM
CC50 ([2]; primary human hepatocytes): 77.2 µM
IC50 (SREBP-1 [3]): 1.71 µM
IC50 (SREBP-2 [5]): 3.43 µM
Folds of inhibition LDLR mRNA (LDLR): 3.02±0.11 fold
Folds of inhibition DGAT2 mRNA (DGAT2): 3.77±0.45 fold
Folds of inhibition SREBP-2 mRNA (SREBP-2 [6]): 4.01±0.31 fold
Folds of inhibition SREBP-1 mRNA (SREBP-1 [7]): 2.98±0.23 fold

Source: patent US11000491B2, “Amino-aryl-benzamide compounds and methods of use thereof” (HEPANOVA, INC., priority 2017, dated 2021)
